Laboratory results published in paper PMC6272230, “Uses of 3-(2-Bromoacetyl)-2H-chromen-2-one in the Synthesis of Heterocyclic Compounds Incorporating Coumarin: Synthesis, Characterization and Cytotoxicity” (Molecules, 2015).

How the values were obtained:
[1] = system: nasopharyngeal carcinoma (HONE1); test: In vitro cytotoxicity against HONE1 cells; type: cell-based; conditions: Homo sapiens; HONE1, nasopharyngeal carcinoma; concentration producing 50% reduction in cell growth; read-out: Cytotoxicity (IC50 in nM) HONE1
Protocol: (§1) The heterocyclic compounds, prepared in this study, were evaluated according to standard protocols for their in vitro cytotoxicity against six human cancer cell lines including cells derived from human gastric cancer (NUGC), human colon cancer (DLD1), human liver cancer (HA22T and HEPG2), nasopharyngeal carcinoma (HONE1), human breast cancer (MCF) and normal fibroblast cells (WI38). For comparison purposes, CHS 828, a pyridyl cyanoguanidine, was used as a standard antitumor drug (Figure 2). […] All the synthesized compounds were tested for their cytotoxicity against normal fibroblast cells.
(§2) Fetal bovine serum (FBS) and L-glutamine, were purchased from Gibco Invitrogen Co. (Scotland, UK). RPMI-1640 medium was purchased from Cambrex (East Rutherford, NJ, USA). Dimethyl sulfoxide (DMSO), CHS 828, penicillin, streptomycin and sulforhodamine B (SRB) were purchased from Sigma Chemical Co. (Saint Louis, MO, USA).
(§3) Cell cultures were obtained from the European Collection of Cell Cultures (ECACC, Salisbury, UK) and human gastric cancer (NUGC), human colon cancer (DLD1), human liver cancer (HA22T and HEPG2), human breast cancer (MCF), nasopharyngeal carcinoma (HONE1) and normal fibroblast cells (WI38) were kindly provided by the National Cancer Institute (NCI, Cairo, Egypt). They were grown as a monolayer and routinely maintained in RPMI-1640 medium supplemented with 5% heat inactivated FBS, 2 mM glutamine and antibiotics (penicillin 100 U/mL, streptomycin 100 µg/mL) at 37 °C in a humidified atmosphere containing 5% CO2. Exponentially growing cells were obtained by plating 1.5 × 10^5 cells/mL for the six human cancer cell lines followed by 24 h of incubation. The effect of the vehicle solvent (DMSO) on the growth of these cell lines was evaluated in all the experiments by exposing untreated control cells to the maximum concentration (0.5%) of DMSO used in each assay.

[2] = system: human liver cancer (HA22T); test: In vitro cytotoxicity against HA22T cells; type: cell-based; conditions: liver cancer, concentration producing 50% reduction in cell growth, read-out: Cytotoxicity (IC50 in nM) HA22T
Protocol: as §1, §2, §3

[3] = system: human breast cancer (MCF); test: In vitro cytotoxicity against MCF cells; type: cell-based; conditions: MCF, breast cancer, concentration producing 50% reduction in cell growth, read-out: Cytotoxicity (IC50 in nM) MCF
Protocol: as §1, §2, §3

[4] = In vitro cytotoxicity against normal fibroblast cells WI38; type: cell-based; conditions: human, concentration producing 50% reduction in cell growth
Protocol: as §1, §2, §3

[5] = system: human colon cancer (DLD1); test: In vitro cytotoxicity against DLD1 cells; type: cell-based; conditions: DLD-1, DLDI, colon cancer, concentration producing 50% reduction in cell growth, read-out: Cytotoxicity (IC50 in nM) DLDI
Protocol: as §1, §2, §3

[6] = system: human liver cancer (HEPG2); test: In vitro cytotoxicity against HEPG2 cells; type: cell-based; conditions: HEPG2, liver cancer, concentration producing 50% reduction in cell growth, read-out: Cytotoxicity (IC50 in nM) HEPG2
Protocol: as §1, §2, §3

[7] = system: human gastric cancer (NUGC); test: In vitro cytotoxicity against NUGC cells; type: cell-based; conditions: gastric cancer, concentration producing 50% reduction in cell growth, read-out: Cytotoxicity (IC50 in nM) NUGC
Protocol: as §1, §2, §3

## COc1ccc(C2C(Br)=C(c3cc4ccccc4oc3=O)OC(N)=C2C#N)cc1 (centres unmarked) [Compound 6b, 2-Amino-5-bromo-4-(4-methoxyphenyl)-6-(2-oxo-2H-chromen-3-yl)-4H-pyran-3-carbonitrile]
[1]
  IC50: 2850 nM
[2]
  IC50: 2260 nM
[3]
  IC50: 2850 nM
other
  melting point: 193 to 195 °C
[4]
  IC50: 280 nM
[5]
  IC50: 2670 nM
[6]
  IC50: 169 nM
[7]
  IC50: 3320 nM

## N#CC1=C(N)OC(c2cc3ccccc3oc2=O)=C(Br)C1c1ccc(Cl)cc1 (centres unmarked) [Compound 6c, 2-Amino-5-bromo-4-(4-chlorophenyl)-6-(2-oxo-2H-chromen-3-yl)-4H-pyran-3-carbonitrile]
[1]
  IC50: 1670 nM
[2]
  IC50: 2270 nM
[3]
  IC50: 89 nM
other
  melting point: 178 to 180 °C
[4]
  IC50: 480 nM
[5]
  IC50: 283 nM
[6]
  IC50: 683 nM
[7]
  IC50: 38 nM

## N#CC1=C(N)NC(c2cc3ccccc3oc2=O)=C(Br)C1c1ccccc1 (centres unmarked) [Compound 7a, 2-Amino-5-bromo-6-(2-oxo-2H-chromen-3-yl)-4-phenyl-1,4-dihydropyridine-3-carbonitrile]
[1]
  IC50: 423 nM
[2]
  IC50: 166 nM
[3]
  IC50: 463 nM
other
  melting point: 171 to 173 °C
[4]
  IC50: 379 nM
[5]
  IC50: 893 nM
[6]
  IC50: 399 nM
[7]
  IC50: 38 nM

## COc1ccc(C2C(Br)=C(c3cc4ccccc4oc3=O)NC(N)=C2C#N)cc1 (centres unmarked) [Compound 7b, 2-Amino-5-bromo-4-(4-methoxyphenyl)-6-(2-oxo-2H-chromen-3-yl)-1,4-dihydropyridine-3-carbonitrile]
[1]
  IC50: 180 nM
[2]
  IC50: 783 nM
[3]
  IC50: 409 nM
other
  melting point: 164 to 166 °C
[4]
  IC50: 160 nM
[5]
  IC50: 532 nM
[6]
  IC50: 738 nM
[7]
  IC50: 782 nM

## N#CC1=C(N)OC(c2cc3ccccc3oc2=O)=C(C#N)C1c1ccccc1 (centres unmarked) [Compound 10a, 2-Amino-6-(2-oxo-2H-chromen-3-yl)-4-phenyl-4H-pyran-3,5-dicarbonitrile]
[1]
  IC50: 6270 nM
[2]
  IC50: 1160 nM
[3]
  IC50: 2530 nM
other
  melting point: 173 to 175 °C
[4]
  IC50: 417 nM
[5]
  IC50: 440 nM
[6]
  IC50: 2770 nM
[7]
  IC50: 537 nM

## N#CC1=C(N)NC(c2cc3ccccc3oc2=O)=C(C#N)C1c1ccccc1 (centres unmarked) [Compound 11a, 2-Amino-6-(2-oxo-2H-chromen-3-yl)-4-phenyl-1,4-dihydropyridine-3,5-dicarbonitrile]
[1]
  IC50: 2320 nM
[2]
  IC50: 314 nM
[3]
  IC50: 4940 nM
other
  melting point: 133 to 135 °C
[4]
  IC50: 128 nM
[5]
  IC50: 222 nM
[6]
  IC50: 3350 nM
[7]
  IC50: 680 nM

## N#CC1=C(N)NC(c2cc3ccccc3oc2=O)=C(C#N)C1c1ccco1 (centres unmarked) [Compound 11d, 2-Amino-4-(furan-2-yl)-6-(2-oxo-2H-chromen-3-yl)-1,4-dihydropyridine-3,5-dicarbonitrile]
[1]
  IC50: 1190 nM
[2]
  IC50: 137 nM
[3]
  IC50: 40 nM
other
  melting point: 168 to 170 °C
[4]
  IC50: 652 nM
[5]
  IC50: 3460 nM
[6]
  IC50: 3120 nM
[7]
  IC50: 649 nM
